Patent US7745450B2, “Pyrazolo[4,3-d]pyrimidines, processes for their preparation and methods for therapy” (Institute of Experimental Botany, priority 2002, dated 2010)

Legend:
MMK1 protein kinase = MMK1 protein kinase (Vicia faba, UniProt A0AAV1B7B8); assay: MMK1 protein kinase activity; type: biochemical
Protocol: Protein extraction and purification of pant CDK by binding to p13^suc1-beads or immunopurification with an antibody specific to the cdc2a-MS protein was carried out as described previously (Bögre et al. 1997, Plant Physiol. 113, 1997, 841-852). The MMK1 protein kinase was purified with a specific antibody from Vicia faba extracts as described by Bögre et al. 1997a, Plant Cell 9, 75-83). Protein kinase activity was measures as described above in Example 20. The quantification of radioactivity incorporated into histone H1 or myelin basic protein was undertaken using phosphoimager (FIG. 2).

[1] = test system: CEM (human lymphoblastoid leukemia); assay: In vitro cytotoxic activity, Calcein AM; type: cell-based; conditions: Homo sapiens, 72 h, three days
Protocol: We have been using the following cell lines: HELA (human cervical carcinoma), MCF7 (human breast adenocarcinoma), NIH 3T3 (mouse fibroblasts), HOS (human osteogenic sarcoma), HL 60 (human promyelocytic leukemia), G 361 (human malignant melanoma), K562 (human erythroleukemia), CEM (human lymphoblastoid leukemia). Tested drugs were added to the cell cultures in six different concentration and kept at 37° C. and 5% CO2 for three days. All cell lines were grown in DMEM medium (Gibco BRL) supplemented with 10% (v/v) fetal bovine serum and L-glutamine and maintained at 37° C. in a humidified atmosphere with 5% CO2. 10^4 cells were seeded into each well of 96 well plate, allowed to stabilize for at least 2 h and then tested compounds were added at various concentrations ranging from 200 to 0.2 μM in triplicates. Three days after drug addition Calcein AM solution (Molecular Probes) was added and let to enter the cells for 1 hour. Fluorescence of viable cells was quantified employing Fluoroskan Ascent (Microsystems).

B16 = assay: In vitro cytotoxic activity, Calcein AM; type: cell-based; conditions: Mus musculus, B16, 72 h, three days

Chain of MMK1 protein kinase (A0AAV1B7B8 1-394): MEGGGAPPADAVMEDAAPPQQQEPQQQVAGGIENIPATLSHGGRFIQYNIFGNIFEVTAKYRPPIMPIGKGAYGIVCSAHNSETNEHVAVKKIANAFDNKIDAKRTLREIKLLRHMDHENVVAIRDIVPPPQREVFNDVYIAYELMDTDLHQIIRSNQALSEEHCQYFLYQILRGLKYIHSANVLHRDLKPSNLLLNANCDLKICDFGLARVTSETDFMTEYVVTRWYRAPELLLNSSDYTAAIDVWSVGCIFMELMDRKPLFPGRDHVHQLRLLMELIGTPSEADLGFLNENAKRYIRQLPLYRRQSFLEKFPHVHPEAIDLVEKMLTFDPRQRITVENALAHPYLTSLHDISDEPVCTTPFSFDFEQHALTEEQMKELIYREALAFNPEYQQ

Compound	IC50 (MMK1 protein kinase)	GI50 [1]	GI50 (B16)
Cc1n[nH]c2c(Nc3ccccc3)nc(NCCO)nc12 [2-hydroxyethylamino / anilino / methyl]	2.5 µM	10.2 µM	12.4 µM
CC(C)c1n[nH]c2c(NC(CO)c3ccccc3)nc(NC(CO)C(C)C)nc12 (stereo not drawn)	0.15 µM	2.6 µM	4.8 µM
Cc1n[nH]c2c(Nc3ccc(Br)cc3)nc(NCCO)nc12	0.15 µM	8.5 µM	8.6 µM
CC(C)c1n[nH]c2c(N(C)CCc3ccc(O)c(O)c3)nc(N[C@@H](CO)C(C)C)nc12	0.15 µM	8.4 µM	9.7 µM
Cc1n[nH]c2c(Nc3ccc(C(=O)O)c(Cl)c3)nc(NCCO)nc12	0.16 µM	8.9 µM	9.2 µM
Cc1n[nH]c2c(NCc3cccc(Cl)c3O)nc(NCCO)nc12	0.38 µM	1.5 µM	2.1 µM
Cc1n[nH]c2c(Nc3ccc(O)c(C(=O)O)c3)nc(NCCO)nc12	0.7 µM	12.4 µM	15.8 µM
Cc1n[nH]c2c(NCc3ccc(Cl)c(N)c3)nc(NCCO)nc12	1.8 µM	12.4 µM	13.5 µM
CC[C@H](CO)Nc1nc(NCc2ccc(O)c(O)c2)c2[nH]nc(C(C)C)c2n1	1.1 µM	9.2 µM	15.7 µM

These reach a lower IC50 (MMK1 protein kinase). Values come first.

IC50 (MMK1 protein kinase)	Compound	GI50 [1]	GI50 (B16)
0.011 µM	CC[C@H](CO)Nc1nc(NCc2ccc(Cl)c(O)c2O)c2[nH]nc(C(C)C)c2n1	3.1 µM	5.6 µM
0.005 µM	CC(=O)c1cccc(CNc2nc(N[C@@H](CO)C(C)C)nc3c(C(C)C)n[nH]c23)c1	8.6 µM	9.4 µM
0.015 µM	COc1cccc(CNc2nc(N[C@@H](CO)C(C)C)nc3c(C(C)C)n[nH]c23)c1O	9.7 µM	9.1 µM
0.04 µM	CC[C@H](CO)Nc1nc(NCc2cccc(O)c2)c2[nH]nc(C(C)C)c2n1	10.5 µM	12.4 µM
0.015 µM	CC[C@H](CO)Nc1nc(NCc2cc(O)c(Cl)cc2O)c2[nH]nc(C(C)C)c2n1	2.5 µM	4.8 µM
0.04 µM	CC[C@H](CO)Nc1nc(NCc2cccc(C(C)=O)c2)c2[nH]nc(C(C)C)c2n1	11.5 µM	19.1 µM
0.11 µM	CC[C@H](CO)Nc1nc(Nc2ccccc2)c2[nH]nc(C(C)C)c2n1	13.2 µM	18.4 µM
0.005 µM	CC[C@H](CO)Nc1nc(NCc2ccc(OC)c(O)c2O)c2[nH]nc(C(C)C)c2n1	4.7 µM	6.2 µM
0.012 µM	CC[C@H](CO)Nc1nc(NCc2cccc(Cl)c2O)c2[nH]nc(C(C)C)c2n1	1.2 µM	2.4 µM
0.11 µM	CC(C)c1n[nH]c2c(N(C)Cc3ccc(O)c(O)c3)nc(N[C@@H](CO)C(C)C)nc12	3.5 µM	4.8 µM
0.015 µM	CC(C)c1n[nH]c2c(Nc3cc(N)cc(Cl)c3)nc(N[C@@H](CO)C(C)C)nc12	9.5 µM	14.5 µM
